Publication PMC4820820, “CETSA screening identifies known and novel thymidylate synthase inhibitors and slow intracellular activation of 5-fluorouracil” (Nature Communications, 2016)
Where two headings read alike, the source gives them in different places.

Experiments:
[1] = target: T1, human thymidylate synthase (TS) (Homo sapiens, UniProt P04818); assay: CETSA primary screen / single-concentration retest, AlphaScreen, live K562 cells; assay type: cell-based
T1 construct: screening in live, non-engineered cells expressing thymidylate synthase; endogenous in cells; host or cells: K562 (human myelogenous leukemia) cells
Experimental: Compounds were placed in columns 1–22. […] At the day of the experiment the plates were allowed to thaw for 30 min followed by a brief centrifugation step (1,000 × g for 1 min) prior to removal of the seal. The compounds were then diluted with 20 μl supplemented cell culture medium using a Multidrop Combi reagent dispenser (Thermo Scientific). Finally 5 μl of the diluted compounds were transferred to a 384 well hardshell PCR plate (HSR480, BIORAD) using a Bravo liquid handling platform equipped with a 384-well head (Agilent). […] The final concentration of DMSO in the assay was 0.5% in all samples.
The screen procedure started with the addition of 5 μl of a suspension of K562 cells at a density of 10 million cells per ml to all wells of a 384 well hardshell PCR plate (HSR480, BIORAD) using an electronic multichannel pipette (Biohit). […] For the time-course experiments the incubation times were altered to include also 10 min, 30 min and 6 h. […] After the incubation step the plates were transiently heated at 50 °C for 3 min followed by a controlled cooling to 20 °C for 1 min using a real-time PCR machine (LightCycler480 system, Roche). Plate handling was then as described above for the thermal aggregation experiments. The data were analyzed using microsoft excel and GraphPad Prism 6.
A calculation of the average and standard error of means for each set of controls also allowed an illustration of how these responses varied over the 32 screening plates. The Z′ factor[38] is commonly used as a measure of how well the assay separates between the controls and this was calculated as described based on the calculated averages and standard deviations of the controls on a per plate basis. For the Tagg shift and the […] experiments the data were analyzed in GraphPad Prism using the Boltzmann sigmoid equation and the saturation binding curve (rectangular hyperbola; binding isotherm) function, respectively. As already discussed[14] these methods make use of equilibrium models for data analysis although the methodology depends on the irreversible aggregation of denatured material. For this reason we refer to the observed responses as apparent and isothermal dose-response fingerprints and are careful with any quantitative interpretations, being well aware of their dependency on experimental conditions. Experiments are on-going to address the quantitative interpretation of CETSA data.

TS = TS (Homo sapiens, UniProt P04818); assay: TS enzyme inhibition assay; assay type: biochemical; set-up: His6 tag with TEV site (vector-encoded by pNIC28-Bsa4); made in house; host or cells: Rosetta BL21-DE3 Escherichia coli
Experimental: Enzymatic activity of recombinant human TS was measured spectrophotometrically at 340 nm by monitoring the absorbance change during the conversion of 5,10-methylenetetrahydrofolate to dihydrofolate using an Infinite M200 spectrometer (Tecan). Measurements were carried out at room temperature and in a buffer of 50 mM Tris at pH 7.5 and 150 mM NaCl. Initial velocities were measured with 250 nM of purified protein, 100 μM 5,10-methylenetetrahydrofolate and 100 μM dUMP in the presence of compounds using the same amount of DMSO as control. Initial rates and activity were analyzed with the software package Prism (GraphPad Software).
Decitabine at a concentration of 1 mM was incubated with 1 mg ml^−1 of recombinant DCK and 2.5 mM ATP in a buffer of 50 mM Tris at pH 7.5, 150 mM NaCl and 0.5 mM MgCl2 at room temperature for 60 min to generate the corresponding monophosphates. To probe for nucleotide deamination the samples were further treated with 1 mg ml^−1 of recombinant DCTD in the presence of 1 mM ATP and 10 μM ZnCl2 for 20 min at room temperature. After incubation, the samples were heated at 95 °C for 10 min and centrifuged for 10 min at the highest speed at 4 °C using a benchtop centrifuge. The supernatant was tested without dilution in thermal shift in vitro assays and the TS enzyme inhibition assay. The supernatants from samples without nucleoside were used as the treatment controls.

TS in K562 cell lysates = target: T2, TS in K562 cell lysates (Homo sapiens, UniProt P04818); assay: Western blot CETSA on K562 cell lysates; assay type: binding
T2 construct: screening in live, non-engineered cells expressing thymidylate synthase; endogenous in cells; host or cells: K562 (human myelogenous leukemia) cells
Experimental: For the cell lysate thermal shift experiments, cultured K562 cells were harvested and washed with Hank's Balanced Salt Solution. The cells were diluted in lysis buffer supplemented with complete protease inhibitor cocktail. The cell suspensions were freeze-thawed three times using liquid nitrogen and passed through a 27″ gauge needle five times. The soluble fraction (lysate) was separated from the cell debris by centrifugation at 20,000 × g for 20 min at 4 °C. For the thermal aggregation curve experiments cell lysates were diluted with lysis buffer supplemented with 200 μM dUMP and divided into two aliquots, with one aliquot being treated with ligand and the other aliquot with vehicle (control). […] The supernatants containing the remaining soluble proteins were transferred to new 0.2 ml microtubes and analyzed by sodium dodecyl sulfate polyacrylamide gel electrophoresis (SDS-PAGE) followed by western blot analysis.
NuPage Novex Bis-Tris 4–12% polyacrylamide gels with NuPAGE MES SDS running buffer (Life Technologies) were used for separation of proteins in the samples. […] Chemiluminescence intensities were detected and quantified using a ChemiDoc XRS+ imaging system (Bio-Rad) with Image Lab software (Bio-Rad).

Sequence of TS (P04818 whole entry): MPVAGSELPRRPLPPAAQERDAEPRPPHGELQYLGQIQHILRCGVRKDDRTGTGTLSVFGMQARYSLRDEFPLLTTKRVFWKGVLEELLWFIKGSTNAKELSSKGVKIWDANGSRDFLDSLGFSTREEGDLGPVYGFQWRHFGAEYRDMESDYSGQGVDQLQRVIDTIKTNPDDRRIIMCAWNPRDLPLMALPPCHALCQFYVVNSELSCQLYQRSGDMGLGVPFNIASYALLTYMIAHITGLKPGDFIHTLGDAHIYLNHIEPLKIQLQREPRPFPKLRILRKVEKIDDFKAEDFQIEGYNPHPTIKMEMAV
T1 sequence (P04818 2-313 limits assumed): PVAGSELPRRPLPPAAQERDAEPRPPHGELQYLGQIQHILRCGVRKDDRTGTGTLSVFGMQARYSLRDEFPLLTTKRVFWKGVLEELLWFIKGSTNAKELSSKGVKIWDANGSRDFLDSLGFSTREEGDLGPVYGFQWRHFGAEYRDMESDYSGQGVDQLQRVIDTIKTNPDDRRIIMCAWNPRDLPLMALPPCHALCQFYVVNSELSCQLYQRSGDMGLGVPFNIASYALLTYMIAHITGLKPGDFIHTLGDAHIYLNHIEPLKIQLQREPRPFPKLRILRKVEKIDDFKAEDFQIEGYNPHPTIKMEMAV
T2 sequence (P04818 2-313 limits assumed): as above

| % stabilization in screen at 50 µM ([1]; K562, 2 h; read-out: % stabilization in screen) [%] | inhibition at 10 µM (TS; 10 μM compound, read-out: inhibition of TS enzymatic activity) [%] | inhibition of TS enzymatic activity (TS; 100 μM compound) | Tagg shift of TS in K562 cell lysates (TS in K562 cell lysates; 200 μM compound, lysate with 200 μM dUMP) [°C] | SMILES | % stabilization in screen at 50 µM ([1]; K562, 2 h, read-out: % stabilization in screen) [%] | inhibition in TS enzymatic assay (TS; decitabine sample after DCK treatment) | inhibition in TS enzymatic assay (TS; decitabine sample after treatment with both DCK and DCTD) | stabilization of TS in treated K562 lysates (TS in K562 cell lysates; 200 µM decitabine) |
| --- | --- | --- | --- | --- | --- | --- | --- | --- |
|  |  |  |  | Nc1ncn([C@H]2C[C@H](O)[C@@H](CO)O2)c(=O)n1 [decitabine, 5-Aza-deoxycytidine] | 91 | minor inhibition | near full inhibition | not stabilized |
| 20 | 60 | near complete inhibition | 3.7 | Cc1cc(O)nc2sc(C(=O)c3ccccc3)c(N)c12 [CBK115334, 3-amino-2-benzoyl-4-methylthieno(2,3-b)pyridin-6-ol] |  |  |  |  |
